Results from patent US12116358B2, “Substituted indoles and methods of use thereof” (EPIZYME, INC., priority 2018, dated 2024).
pIC50: −log10 of the molar value. Read-outs that look alike come from different tables or passages of the source.

Key:
H3K36me3 in A549 cells = assay: In-Cell Western (ICW) assay of SETD2 inhibitors (A549 assay); type: cell-based, human; conditions: A549 cells, read-out: SETD2 A549
Summary of the method: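 A549 cells seeded at 4,000/well onto compound and incubated 3 days at 37° C. Methanol-fixed cells stained overnight at 4° C with anti-H3K36me3 (1:1000), then IRDye 800CW secondary with DRAQ5 DNA counterstain. Plates read by Licor imaging at 700 and 800 channels.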

SETD2(1434-1711) = target: T1, SETD2(1434-1711) (Homo sapiens, UniProt Q9BYW2); assay: SETD2 (1434-1711) assay; type: biochemical; conditions: read-out: SETD2 (1434-1711)
T1 construct: SETD2 (1434-1711) Assay; catalogue N/A
T1 sequence (Q9BYW2 1434-1711): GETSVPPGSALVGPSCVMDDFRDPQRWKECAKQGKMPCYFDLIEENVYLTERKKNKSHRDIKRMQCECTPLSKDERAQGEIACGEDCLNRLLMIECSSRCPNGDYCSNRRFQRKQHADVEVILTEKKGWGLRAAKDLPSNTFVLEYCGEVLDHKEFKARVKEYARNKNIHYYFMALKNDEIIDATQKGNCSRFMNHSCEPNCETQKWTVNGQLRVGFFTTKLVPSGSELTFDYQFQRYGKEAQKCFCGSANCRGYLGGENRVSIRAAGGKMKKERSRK

pIC50 (H3K36me3 in A549 cells; Homo sapiens) | pIC50 (SETD2(1434-1711)) | pIC50 (H3K36me3 in A549 cells) | SMILES
< 4.60 | < 3.70 | – | Cc1cccc2cc(C(=O)N3CCCC34CCc3ccccc34)[nH]c12 (centres unmarked) [compound 619]
– | < 3.70 | < 4.60 | Cc1cccc2cc(C(=O)NC3CCNC(=O)c4ccccc43)[nH]c12 (centres unmarked) [compound 620]
– | < 3.70 | < 4.60 | Cc1cccc2cc(C(=O)NCCc3cc(Cl)ccc3N3CCOCC3)[nH]c12 [compound 622]
– | < 3.70 | < 4.60 | Cc1cccc2cc(C(=O)Nc3cn4ccnc4cn3)[nH]c12 [compound 623]
– | 6.40 | 6.40 | Cc1ccc(F)c2cc(C(=O)N[C@@H]3CCC[C@H](N4CCCNC(=O)C4)C3)[nH]c12 [compound 823]
– | 8.00 | 7.40 | CCOC(=O)N1CCN([C@H]2CCC[C@@H](NC(=O)c3cc4c(F)ccc(C)c4[nH]3)C2)CC1 [compound 824]
– | 7.00 | 6.30 | Cc1ccc(F)c2cc(C(=O)N[C@@H]3CCC[C@H](N4CCN(CC(F)(F)F)CC4)C3)[nH]c12 [compound 826]
– | 7.70 | 7.40 | Cc1ccc(F)c2cc(C(=O)N[C@@H]3CCC[C@H](N4CCN(C(=O)N5CCOCC5)CC4)C3)[nH]c12 [compound 828]
– | 7.40 | 6.40 | CC(=O)NC1CCN([C@H]2CCC[C@@H](NC(=O)c3cc4c(F)ccc(C)c4[nH]3)C2)C1 (some centres unmarked) [compound 833]
7.00 | 7.70 | – | Cc1ccc(F)c2cc(C(=O)N[C@@H]3CCC[C@H](N4CCN(C(=O)C(C)C)CC4)C3)[nH]c12 [compound 837]
– | 8.00 | 7.40 | CCC(=O)N1CCN([C@H]2CCC[C@@H](NC(=O)c3cc4c(F)ccc(C)c4[nH]3)C2)CC1 [compound 839]
– | 6.05 | < 5.70 | CCC(=O)N1CCN([C@@H]2CCC[C@@H](NC(=O)c3cc4c(F)ccc(C)c4[nH]3)C2)CC1 [compound 840]
– | 6.70 | 6.10 | COCCN(C(C)=O)C1CCN(C2CCCC(NC(=O)c3cc4c(F)ccc(C)c4[nH]3)C2)C1 (centres unmarked) [compound 843]
– | 5.07 | < 5.70 | COCCN(C(C)=O)C1CCN(C2CCCC(NC(=O)c3cc4c(F)ccc(C)c4[nH]3)C2)C1 (centres unmarked) [compound 844]
– | 7.70 | 7.00 | COCC(=O)N1CCN([C@H]2CCC[C@@H](NC(=O)c3cc4c(F)ccc(C)c4[nH]3)C2)CC1 [compound 846]
– | 6.00 | < 5.70 | COCC(=O)N1CCN([C@@H]2CCC[C@@H](NC(=O)c3cc4c(F)ccc(C)c4[nH]3)C2)CC1 [compound 847]
– | 7.00 | 6.00 | Cc1ccc(F)c2cc(C(=O)NC3CCCC(N4CCn5ccnc5C4)C3)[nH]c12 (centres unmarked) [compound 852]
– | 7.70 | 6.30 | Cc1ccc(F)c2cc(C(=O)N[C@@H]3CCC[C@H](N4CCN(C(=O)CN(C)C)CC4)C3)[nH]c12 [compound 854]
– | 5.33 | < 5.70 | Cc1ccc(F)c2cc(C(=O)N[C@@H]3CCC[C@@H](N4CCN(C(=O)CN(C)C)CC4)C3)[nH]c12 [compound 855]
– | 6.70 | 6.52 | CC(=O)N1CCN([C@H]2CCC[C@@H](NC(=O)c3cc4cccc(C)c4[nH]3)C2)CC1 [compound 856]
– | 5.13 | < 5.70 | CC(=O)N1CCN([C@@H]2CCC[C@@H](NC(=O)c3cc4cccc(C)c4[nH]3)C2)CC1 [compound 857]
– | 6.40 | < 5.70 | CNC(=O)CN1CCN(C2CCC[C@@H](NC(=O)c3cc4c(F)ccc(C)c4[nH]3)C2)CC1 (some centres unmarked) [compound 858]
– | 6.30 | 5.72 | Cc1ccc(F)c2cc(C(=O)N[C@@H]3CCCC(N4CCN(CC(=O)N(C)C)CC4)C3)[nH]c12 (some centres unmarked) [compound 859]
– | 7.00 | 5.80 | Cc1ccc(F)c2cc(C(=O)NC3CCCC(N4CCn5cnnc5C4)C3)[nH]c12 (centres unmarked) [compound 860]
– | 5.72 | < 5.70 | Cc1ccc(F)c2cc(C(=O)N[C@@H]3CCC[C@@H](N4CCn5cnnc5C4)C3)[nH]c12 [compound 861]
